# Test results from the supplement of paper PMC4862054.
# Tested on: BT-549
# Test: normalised response (% of control), CellTox Green; higher = less cell death (100 = DMSO, 0 = benzethonium chloride kill control)
# Conditions: incubation time: 72 h
# Summary of the method: (§1)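 Each value is the plate-normalised signal at one concentration of the series. Breast cancer cell lines (20 µl suspension) were incubated 72 h in 384-well plates with compound at 5 concentrations in 10-fold steps over a compound-specific 10,000-fold range. CellTox Green and then CellTiter-Glo were read, and each plate was scaled to 0.1 % DMSO (100) and a positive kill control (0).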
row,Structure (SMILES),normalised response [%]
1,C=C1C[C@@H]2[C@H](CC[C@]3(C)C(=O)CC[C@@H]23)[C@@]2(C)C=CC(=O)C=C12 [Exemestane] (100 nM),92.8
2,Cc1cc(Nc2cc(CN3CCOCC3)c3nc(C)c(Cc4ccc(Cl)cc4F)n3n2)n[nH]1 [Gandotinib] (100 nM),90
3,NC(=O)c1ccc(I)c([N+](=O)[O-])c1 [Iniparib] (100 nM),106
4,CCc1c2c(nc3ccc(OC(=O)N4CCC(N5CCCCC5)CC4)cc13)-c1cc3c(c(=O)n1C2)COC(=O)[C@]3(O)CC [Irinotecan] (100 nM),93.4
5,O=C(Nc1cccnc1)N1CCC(Cc2cccc(Oc3ccc(C(F)(F)F)cn3)c2)CC1 [PF-3845] (100 nM),99.9
6,Cc1[nH]c2ccccc2c1CCNCc1ccc(/C=C/C(=O)NO)cc1 [Panobinostat] (10 nM),106
7,COCC1(CO)C(=O)C2CCN1CC2 (stereo unspecified) [Prima-1 Met] (100 nM),102

# Tested on: MCF-10A
# Test: as above
# Conditions: incubation time: 72 h
# Summary of the method: as §1
row,Structure (SMILES),normalised response [%]
1,CCn1c(-c2nonc2N)nc2cnc(Oc3cccc(NC(=O)c4ccc(OCCN5CCOCC5)cc4)c3)cc21 (100 nM),97.3
2,CNC(=O)c1ccc(N2C(=S)N(c3ccc(C#N)c(C(F)(F)F)c3)C(=O)C2(C)C)cc1F [Enzalutamide] (100 nM),86.1
3,C=C1C[C@@H]2[C@H](CC[C@]3(C)C(=O)CC[C@@H]23)[C@@]2(C)C=CC(=O)C=C12 [Exemestane] (100 nM),109
4,Cc1cc(Nc2cc(CN3CCOCC3)c3nc(C)c(Cc4ccc(Cl)cc4F)n3n2)n[nH]1 [Gandotinib] (100 nM),84.8
5,NC(=O)c1ccc(I)c([N+](=O)[O-])c1 [Iniparib] (100 nM),100
6,CCc1c2c(nc3ccc(OC(=O)N4CCC(N5CCCCC5)CC4)cc13)-c1cc3c(c(=O)n1C2)COC(=O)[C@]3(O)CC [Irinotecan] (100 nM),109
7,O=C(Nc1cccnc1)N1CCC(Cc2cccc(Oc3ccc(C(F)(F)F)cn3)c2)CC1 [PF-3845] (100 nM),107
8,Cc1[nH]c2ccccc2c1CCNCc1ccc(/C=C/C(=O)NO)cc1 [Panobinostat] (10 nM),110
9,COCC1(CO)C(=O)C2CCN1CC2 (stereo unspecified) [Prima-1 Met] (100 nM),82

# Tested on: HCC1937
# Test: as above
# Conditions: incubation time: 72 h
# Summary of the method: as §1
row,Structure (SMILES),normalised response [%]
1,CCn1c(-c2nonc2N)nc2cnc(Oc3cccc(NC(=O)c4ccc(OCCN5CCOCC5)cc4)c3)cc21 (100 nM),108
2,CNC(=O)c1ccc(N2C(=S)N(c3ccc(C#N)c(C(F)(F)F)c3)C(=O)C2(C)C)cc1F [Enzalutamide] (100 nM),94.6
3,C=C1C[C@@H]2[C@H](CC[C@]3(C)C(=O)CC[C@@H]23)[C@@]2(C)C=CC(=O)C=C12 [Exemestane] (100 nM),56.9
4,Cc1cc(Nc2cc(CN3CCOCC3)c3nc(C)c(Cc4ccc(Cl)cc4F)n3n2)n[nH]1 [Gandotinib] (100 nM),102
5,NC(=O)c1ccc(I)c([N+](=O)[O-])c1 [Iniparib] (100 nM),92.4
6,CCc1c2c(nc3ccc(OC(=O)N4CCC(N5CCCCC5)CC4)cc13)-c1cc3c(c(=O)n1C2)COC(=O)[C@]3(O)CC [Irinotecan] (100 nM),98
7,O=C(Nc1cccnc1)N1CCC(Cc2cccc(Oc3ccc(C(F)(F)F)cn3)c2)CC1 [PF-3845] (100 nM),110
8,Cc1[nH]c2ccccc2c1CCNCc1ccc(/C=C/C(=O)NO)cc1 [Panobinostat] (10 nM),99.2
9,COCC1(CO)C(=O)C2CCN1CC2 (stereo unspecified) [Prima-1 Met] (100 nM),122

# Tested on: MDA-MB-436
# Test: as above
# Conditions: incubation time: 72 h
# Summary of the method: as §1
row,Structure (SMILES),normalised response [%]
1,CCn1c(-c2nonc2N)nc2cnc(Oc3cccc(NC(=O)c4ccc(OCCN5CCOCC5)cc4)c3)cc21 (100 nM),82
2,CNC(=O)c1ccc(N2C(=S)N(c3ccc(C#N)c(C(F)(F)F)c3)C(=O)C2(C)C)cc1F [Enzalutamide] (100 nM),96.9
3,C=C1C[C@@H]2[C@H](CC[C@]3(C)C(=O)CC[C@@H]23)[C@@]2(C)C=CC(=O)C=C12 [Exemestane] (100 nM),109
4,Cc1cc(Nc2cc(CN3CCOCC3)c3nc(C)c(Cc4ccc(Cl)cc4F)n3n2)n[nH]1 [Gandotinib] (100 nM),100
5,NC(=O)c1ccc(I)c([N+](=O)[O-])c1 [Iniparib] (100 nM),67.8
6,CCc1c2c(nc3ccc(OC(=O)N4CCC(N5CCCCC5)CC4)cc13)-c1cc3c(c(=O)n1C2)COC(=O)[C@]3(O)CC [Irinotecan] (100 nM),93.4
7,O=C(Nc1cccnc1)N1CCC(Cc2cccc(Oc3ccc(C(F)(F)F)cn3)c2)CC1 [PF-3845] (100 nM),107
8,Cc1[nH]c2ccccc2c1CCNCc1ccc(/C=C/C(=O)NO)cc1 [Panobinostat] (10 nM),82.3
9,COCC1(CO)C(=O)C2CCN1CC2 (stereo unspecified) [Prima-1 Met] (100 nM),86.5

# Tested on: BT-474
# Test: as above
# Conditions: incubation time: 72 h
# Summary of the method: as §1
row,Structure (SMILES),normalised response [%]
1,CCn1c(-c2nonc2N)nc2cnc(Oc3cccc(NC(=O)c4ccc(OCCN5CCOCC5)cc4)c3)cc21 (100 nM),103
2,CNC(=O)c1ccc(N2C(=S)N(c3ccc(C#N)c(C(F)(F)F)c3)C(=O)C2(C)C)cc1F [Enzalutamide] (100 nM),103
3,C=C1C[C@@H]2[C@H](CC[C@]3(C)C(=O)CC[C@@H]23)[C@@]2(C)C=CC(=O)C=C12 [Exemestane] (100 nM),104
4,Cc1cc(Nc2cc(CN3CCOCC3)c3nc(C)c(Cc4ccc(Cl)cc4F)n3n2)n[nH]1 [Gandotinib] (100 nM),100
5,NC(=O)c1ccc(I)c([N+](=O)[O-])c1 [Iniparib] (100 nM),95.7
6,CCc1c2c(nc3ccc(OC(=O)N4CCC(N5CCCCC5)CC4)cc13)-c1cc3c(c(=O)n1C2)COC(=O)[C@]3(O)CC [Irinotecan] (100 nM),92.4
7,O=C(Nc1cccnc1)N1CCC(Cc2cccc(Oc3ccc(C(F)(F)F)cn3)c2)CC1 [PF-3845] (100 nM),104
